Results published in ChEMBL document CHEMBL2321663, “Alkaloids from Sri Lankan curry-leaf (Murraya koenigii) display melanogenesis inhibitory activity: structures of karapinchamines A and B” (Bioorg Med Chem, 2013).

Columns and labels:
[1] = target: T1, Tyrosinase (Agaricus bisporus) (UniProt O42713); assay: Inhibition of mushroom tyrosinase using L-DOPA as substrate after at 100 uM after 5 mins relative to control
T1 sequence (whole entry): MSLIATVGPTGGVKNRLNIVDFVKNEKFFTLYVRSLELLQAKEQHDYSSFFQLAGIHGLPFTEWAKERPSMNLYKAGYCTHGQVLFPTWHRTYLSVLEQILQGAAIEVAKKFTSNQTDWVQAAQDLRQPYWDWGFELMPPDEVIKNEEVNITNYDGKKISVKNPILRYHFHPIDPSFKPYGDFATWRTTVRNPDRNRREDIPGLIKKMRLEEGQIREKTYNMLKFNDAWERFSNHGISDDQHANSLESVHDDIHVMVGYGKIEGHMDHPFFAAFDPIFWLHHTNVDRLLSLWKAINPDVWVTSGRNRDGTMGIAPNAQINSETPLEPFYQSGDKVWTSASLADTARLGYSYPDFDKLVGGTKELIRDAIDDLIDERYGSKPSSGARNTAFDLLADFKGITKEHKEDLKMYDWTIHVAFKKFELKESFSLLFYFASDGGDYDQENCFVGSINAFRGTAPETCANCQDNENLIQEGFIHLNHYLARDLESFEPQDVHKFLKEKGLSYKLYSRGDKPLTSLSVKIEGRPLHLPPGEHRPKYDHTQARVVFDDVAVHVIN

[2] = Cytotoxicity against mouse theophylline-induced B16-4A5 cells assessed as cell viability at 30 uM after 72 hrs by WST8 assay relative to control; assay type: cell-based; conditions: read-out: Activity
[3] = Inhibition of theophylline-induced melanogenesis in mouse B16-4A5 cells at 30 uM after 72 hrs by spectrophotometric analysis relative to control; assay type: functional; conditions: B16-4A5, 72 h
[4] = Inhibition of theophylline-induced melanogenesis in mouse B16-4A5 cells after 72 hrs by spectrophotometric analysis relative to control; assay type: functional, cell-based
[5] = target: T1, Tyrosinase (Agaricus bisporus); assay: Inhibition of mushroom tyrosinase using L-DOPA as substrate after at 3 uM after 5 mins relative to control
[6] = target: T1, Tyrosinase (Agaricus bisporus); assay: Inhibition of mushroom tyrosinase using L-DOPA as substrate after at 1 uM after 5 mins relative to control
[7] = target: T1, Tyrosinase (Agaricus bisporus); assay: Inhibition of mushroom tyrosinase using L-DOPA as substrate after at 30 uM after 5 mins relative to control
[8] = Inhibition of theophylline-induced melanogenesis in mouse B16-4A5 cells at 3 uM after 72 hrs by spectrophotometric analysis relative to control; assay type: functional; conditions: B16-4A5, 72 h
[9] = Cytotoxicity against mouse theophylline-induced B16-4A5 cells assessed as cell viability at 1 uM after 72 hrs by WST8 assay relative to control; assay type: cell-based; conditions: read-out: Activity
[10] = Inhibition of theophylline-induced melanogenesis in mouse B16-4A5 cells at 10 uM after 72 hrs by spectrophotometric analysis relative to control; assay type: functional; conditions: B16-4A5, 72 h
[11] = Cytotoxicity against mouse theophylline-induced B16-4A5 cells assessed as cell viability at 3 uM after 72 hrs by WST8 assay relative to control; assay type: cell-based; conditions: read-out: Activity
[12] = target: T1, Tyrosinase (Agaricus bisporus); assay: Inhibition of mushroom tyrosinase using L-DOPA as substrate after at 10 uM after 5 mins relative to control
[13] = Inhibition of theophylline-induced melanogenesis in mouse B16-4A5 cells at 1 uM after 72 hrs by spectrophotometric analysis relative to control; assay type: functional; conditions: B16-4A5, 72 h
[14] = Cytotoxicity against mouse theophylline-induced B16-4A5 cells assessed as cell viability at 10 uM after 72 hrs by WST8 assay relative to control; assay type: cell-based; conditions: read-out: Activity
[15] = Inhibition of theophylline-induced melanogenesis in mouse B16-4A5 cells at 100 uM after 72 hrs by spectrophotometric analysis relative to control; assay type: functional; conditions: B16-4A5, 72 h
[16] = Inhibition of theophylline-induced melanogenesis in mouse B16-4A5 cells at 1000 uM after 72 hrs by spectrophotometric analysis relative to control; assay type: functional; conditions: B16-4A5, 72 h
[17] = Inhibition of theophylline-induced melanogenesis in mouse B16-4A5 cells at 300 uM after 72 hrs by spectrophotometric analysis relative to control; assay type: functional; conditions: B16-4A5, 72 h

Compound | inhibition [1] [%] | viability at 72 h, 30 µM [2] [%] | inhibition at 30 µM [3] [%] | IC50 [4] [µM] | inhibition [5] [%] | inhibition [6] [%] | inhibition [7] [%] | inhibition at 3 µM [8] [%] | viability at 72 h, 1 µM [9] [%] | inhibition at 10 µM [10] [%] | viability at 72 h, 3 µM [11] [%] | inhibition [12] [%] | inhibition at 1 µM [13] [%] | viability at 72 h, 10 µM [14] [%] | inhibition at 100 µM [15] [%] | inhibition at 1000 µM [16] [%] | inhibition at 300 µM [17] [%]
CC(C)=CCCC1(C)C=Cc2c(ccc3c2[nH]c2ccc(C)cc23)O1 (centres undefined) | -3.4 | 63.9 | 78.4 | 2.2 | -0.7 | 7.4 | -0.3 | 60 | 110 | 85.2 | 117 | -1.1 | 25.9 | 103 |  |  | 
COc1cccc2c1[nH]c1c3c(c(C)cc12)OC(C)(CCC=C(C)C)C=C3 (centres undefined) | -0.8 | 46.3 |  | 3.8 | -2.8 | -1 | 2.7 | 40.4 | 101 | 71.8 | 97.3 | -2.8 | 6.8 | 73.8 |  |  | 
COc1ccc2c(c1)[nH]c1c3c(c(C)cc12)O[C@](C)(CCC=C(C)C)C=C3 | 4.2 | 66.3 | 58.3 | 15.7 | 0.1 | 0.1 | 0.9 | 8.7 | 105 | 40.8 | 98.7 | 0.1 | 10.9 | 94.9 |  |  | 
Oc1cccc2[nH]c3ccccc3c12 | 3.3 | 131 | 66.9 | 13.5 | 0.3 | 0.4 | 0.9 | 32.9 | 101 | 36.1 | 100 | 0.5 | 24.9 | 104 |  |  | 
Cc1cc2c3ccc(O)cc3n3c2c2c1O[C@@]1(C)CC[C@H]([C@H]2C1)C3(C)C (relative stereo) | 20.2 | 71.1 | 74.3 | 2.9 | -0.6 | -1.3 | 15.3 | 50.8 | 101 | 66 | 94.4 | 3.5 | 26.9 | 76.8 |  |  | 
OC[C@H]1O[C@@H](Oc2ccc(O)cc2)[C@H](O)[C@@H](O)[C@@H]1O [ARBUTIN] |  |  | 20.4 | 174 |  |  |  |  |  |  |  |  |  |  | 38.1 | 83.7 | 61.5
c1ccc2c(c1)[nH]c1ccccc12 [CARBAZOLE] | 0.1 | 94.2 | 33.8 | > 100 | -1.8 | 1 | 1.7 | 33.5 | 108 | 36.8 | 108 | -2.2 | 31.3 | 105 |  |  | 
COc1ccc2c([nH]c3cc(O)c(C)cc32)c1C/C=C(\C)CCC=C(C)C [EUCHRESTINE B] | -1.1 | 1.9 |  | 4.1 | -4.4 | -6.5 | -6.4 | 40.6 | 105 | 74.2 | 102 | -4.3 | 18.2 | 83.7 |  |  | 
CC(C)=CCC/C(C)=C/Cc1c(O)ccc2[nH]c3ccc(C)cc3c12 [EUSTIFOLINE C] | 16.1 | 9.9 |  | 8.3 | 2.7 | 1 | 5.9 | 25.2 | 104 | 55.9 | 96.5 | 2.3 | 19.7 | 79.2 |  |  | 
COc1ccc2[nH]c3c4c(c(C)cc3c2c1)OC(C)(C)C=C4 [KOENIMBINE] | 4.3 | 37.9 |  | 1.2 | -1 | 0.7 | 1 | 77 | 114 | 86.2 | 92.4 | -0.1 | 42.5 | 66.6 |  |  | 
CC(C)=CCCC1(C)C=Cc2c(c(C)cc3c2[nH]c2ccccc23)O1 (centres undefined) [MAHANIMBINE] | 6.2 | 35.1 |  | 1.4 | -3.2 | -1.3 | 2.7 | 63.9 | 94.3 |  | 68.7 | -0.4 | 43.3 | 34.4 |  |  | 
